Test results as given in patent US8197794B2, “Core 2 GlcNAc-T inhibitors” (MS Therapeutics Limited, priority 2003, dated 2012).
Where two headings read alike, the source gives them in different places.

Columns and labels:
core 2 GlcNAc-T [1] = target: T1, core 2 GlcNAc-T (Mus musculus, UniProt Q09324); experiment: Cell free assay of core 2 GlcNAc-T on heart lysates of TNF-α mice; assay type: biochemical
T1 construct: heart lysates from either from TNF-alpha over expressing transgenic mice; tissue Taconic-M+B (mice) B6.5JL-Tg (TNF); host or cells: heart lysate of TNF-alpha over-expressing transgenic mice
T1 sequence (Q09324 1-428): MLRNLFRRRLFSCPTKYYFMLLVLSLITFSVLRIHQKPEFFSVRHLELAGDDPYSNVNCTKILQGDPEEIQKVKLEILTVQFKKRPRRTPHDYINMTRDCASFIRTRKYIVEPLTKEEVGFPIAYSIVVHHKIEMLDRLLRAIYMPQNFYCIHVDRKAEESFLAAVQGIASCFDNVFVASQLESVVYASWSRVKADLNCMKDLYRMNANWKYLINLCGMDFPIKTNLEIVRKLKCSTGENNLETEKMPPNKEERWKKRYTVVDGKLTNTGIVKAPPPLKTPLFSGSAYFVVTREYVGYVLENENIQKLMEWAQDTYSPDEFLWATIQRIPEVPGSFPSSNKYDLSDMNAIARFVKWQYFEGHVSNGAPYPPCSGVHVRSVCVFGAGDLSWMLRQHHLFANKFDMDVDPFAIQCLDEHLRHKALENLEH
Procedure: (§1) For Glucose induction of Core 2 GlcNAc-T leukocytes (U937 cells) are exposed to normal glucose (5.8 mM) or high glucose (15 mM) for 24 hours at 37° C. After incubation, the cells maybe lysed and frozen at −20° C. until used for the measurement of core 2 GlcNAc-T. or used immediately. For TNF-α induction of core 2 GlcNAc-T, Human leukocytes(U937 cells) are exposed to human recombinant TNF-alpha (8 pg/ml) in the presence and absence of test compounds After 24 h incubation, the activity of core 2 GlcNAc-T was measured, and expressed as pmoles/h/mg protein. For cell free assay of core 2 GlcNAc-T heart lysates from either from TNF-alpha over expressing transgenic mice (female, B6.5JL-Tg (TNF) supplied by Taconic-M+B, Bomholtveg 10, 8680 Ry, Denmark) or from BB rats (Festing 1979) are exposed to various concentrations of test compound for 1 h at 37° C. Activity of core 2
(§2) GlcNAc-T is measured, and expressed as pmoles/h/mg protein.
(§3) To measure core 2 GlcNAc-T activity, leukocytes were washed in PES, frozen and lysed in 0.9% Triton X-100 at 0° C. The activity of core 2 GlcNAc-T was measured as described previously (Chibber, Diabetes 49, 1724-1730 (2000)). Briefly, the reaction was performed in a reaction mixture containing 50 mM 2(N-morpholino)ethanesulfonic acid (MES, Sigma, Dorset, UK), pH 7.0, 1 mM UDP-6 [′H]-N-acetylglucosamine (16,000 dpm/nmol, NEN Life Science Products, Hounslow, UK), 0.1 M GlcNAc (Sigma, Dorset, Okla.), 1 mM Galβ1-3GalNAcα-p-nitrophenol (Sigma, Dorset, UK) as substrate, and […] of cell lysate (100-200 μg protein) for a final volume of […]. After incubating the mixture for 1 hour at 37° C., the reaction was terminated with 1 ml of ice-cold distilled water and processed on a C18 Sep-Pak column (Waters-Millipore, Watford, UK). After washing the column with 20 ml of distilled water, the product was eluted with 5 ml of methanol. The radioactivity of the samples was counted in a liquid scintillation β-counter (LKB-Wallac, London, UK). Endogenous activity of core 2 GlcNAc-T was measured in the absence of the added acceptor. The specific activity was expressed as pmoles/h/mg of cell protein. In each case, the protein concentration was determined with BioRad protein assay (BioRad, Hertfordshire, UK).

Core 2 GlcNAc-T [2] = target: T2, Core 2 GlcNAc-T (Homo sapiens, UniProt Q02742); experiment: Cell based assay of core 2 GlcNAc-T activity in human leukocytes (U937 cells)
T2 sequence (Q02742 1-428): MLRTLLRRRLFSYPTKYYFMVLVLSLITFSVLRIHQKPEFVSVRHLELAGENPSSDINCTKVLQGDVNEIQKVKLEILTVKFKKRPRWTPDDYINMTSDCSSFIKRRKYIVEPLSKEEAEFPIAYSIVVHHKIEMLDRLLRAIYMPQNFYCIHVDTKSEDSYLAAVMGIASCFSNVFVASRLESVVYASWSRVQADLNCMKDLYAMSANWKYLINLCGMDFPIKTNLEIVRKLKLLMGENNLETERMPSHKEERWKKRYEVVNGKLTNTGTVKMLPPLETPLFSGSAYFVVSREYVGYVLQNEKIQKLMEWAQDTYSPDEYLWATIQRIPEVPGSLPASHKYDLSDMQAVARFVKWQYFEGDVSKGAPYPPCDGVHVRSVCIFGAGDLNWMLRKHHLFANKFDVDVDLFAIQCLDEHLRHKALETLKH
Procedure: (§4) FIG. 17a and FIG. 17b are graphs illustrating the effect of purified trigoneoside IVa, glycoside F, and shatavarin IV on Core 2 GlcNAc-T activity in cell free (FIG. 17a) and cell based (FIG. 17b) assays. In cell free assays heart lysate from BB rats were incubated in the presence, and absence of 20 ng/ml of each compound. After 1 h incubation at 37° C., the activity of core 2 GlcNAc-T was measured, and expressed as pmoles/h/mg protein. The results are the mean of 3-5 separate experiments. In cell based assays human leukocytes (U937 cells) were exposed to 8 pg/ml human recombinant TNF-alpha in the presence and absence of 20 ng/ml of the test compound. After 24 h incubation, the activity of core 2 GlcNAc-T was measured, and expressed as pmoles/h/mg protein.
as §1, §3

core 2 GlcNAc-T [3] = target: core 2 GlcNAc-T (Rattus norvegicus, UniProt Q64165); experiment: Cell free assay of core 2 GlcNAc-T on heart lysates of BB rats; assay type: biochemical
Procedure: as §4
For Glucose induction of Core 2 GlcNAc-T leukocytes (U937 cells) are exposed to normal glucose (5.8 mM) or high glucose (15 mM) for 24 hours at 37° C. After incubation, the cells maybe lysed and frozen at −20° C. until used for the measurement of core 2 GlcNAc-T. or used immediately. For TNF-α induction of core 2 GlcNAc-T, Human leukocytes(U937 cells) are exposed to human recombinant TNF-alpha (8 pg/ml) in the presence and absence of test compounds After 24 h incubation, the activity of core 2 GlcNAc-T was measured, and expressed as pmoles/h/mg protein. […]
as §2
To measure core 2 GlcNAc-T activity, leukocytes were washed in PES, frozen and lysed in 0.9% Triton X-100 at 0° C. The activity of core 2 GlcNAc-T was measured as described previously (Chibber, Diabetes 49, 1724-1730 (2000)). […] The radioactivity of the samples was counted in a liquid scintillation β-counter (LKB-Wallac, London, UK). Endogenous activity of core 2 GlcNAc-T was measured in the absence of the added acceptor. The specific activity was expressed as pmoles/h/mg of cell protein. In each case, the protein concentration was determined with BioRad protein assay (BioRad, Hertfordshire, UK).

Core 2 GlcNAc-T [4] = target: T2, Core 2 GlcNAc-T; experiment: Core 2 GlcNAc-T inhibition, assay system not given; assay type: biochemical
Procedure: as §3

[5] = heart lysates of TNF-α mice, read-out: Approximate Ic50 values, Cell free assay
[6] = read-out: Approximate Ic50 values, Cell based assay

Sequence of core 2 GlcNAc-T (Rattus norvegicus, UniProt Q64165) (Q64165 entry or part of it): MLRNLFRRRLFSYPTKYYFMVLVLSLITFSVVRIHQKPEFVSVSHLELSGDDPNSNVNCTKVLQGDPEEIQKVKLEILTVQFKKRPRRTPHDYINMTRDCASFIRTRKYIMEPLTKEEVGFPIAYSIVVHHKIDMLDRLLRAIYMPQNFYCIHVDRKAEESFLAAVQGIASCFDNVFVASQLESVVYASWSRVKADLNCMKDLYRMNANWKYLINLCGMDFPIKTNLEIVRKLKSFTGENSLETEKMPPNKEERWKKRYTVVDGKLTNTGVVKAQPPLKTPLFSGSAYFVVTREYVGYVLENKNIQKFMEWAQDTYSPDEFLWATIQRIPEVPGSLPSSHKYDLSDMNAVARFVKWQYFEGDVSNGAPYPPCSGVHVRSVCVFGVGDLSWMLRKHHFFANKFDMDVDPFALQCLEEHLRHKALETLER

SMILES | IC50 (core 2 GlcNAc-T [1]; [5]) | IC50 (Core 2 GlcNAc-T [2]; [6]) | also measured
C[C@@H](CC[C@@]1(O)O[C@H]2C[C@H]3[C@@H]4CC[C@@H]5C[C@@H](O[C@@H]6O[C@H](CO)[C@@H](O[C@@H]7O[C@H](CO)[C@@H](O)[C@H](O)[C@H]7O)[C@H](O)[C@H]6O[C@@H]6O[C@@H](C)[C@H](O)[C@@H](O)[C@H]6O)CC[C@]5(C)[C@H]4CC[C@]3(C)[C@H]2[C@@H]1C)CO[C@@H]1O[C@H](CO)[C@@H](O)[C@H](O)[C@H]1O [Shatavarin I, (3β,5β,22α,25S)-26-(β-D-glucopyranosyloxy)-22-hydroxyfurostan-3-yl O-6-deoxy-α-L-mannopyranosyl-(1-42)-O-[β-D-glucopyranosyl-(1→4)]-β-D-glucopyranoside] | 1 nM | 0.75 nM | –
CC1=C(CC[C@@H](C)CO[C@@H]2O[C@H](CO)[C@@H](O)[C@H](O)[C@H]2O)O[C@H]2C[C@H]3[C@@H]4CC=C5C[C@@H](O[C@@H]6O[C@H](CO)[C@@H](O[C@@H]7O[C@@H](C)[C@H](O)[C@@H](O)[C@H]7O)[C@H](O)[C@H]6O[C@@H]6O[C@@H](C)[C@H](O)[C@@H](O)[C@H]6O)CC[C@]5(C)[C@H]4CC[C@]3(C)[C@@H]12 [Pseudoprotodioscin, (3β,22α,25R)-26-(β-D-glucopyranosyloxy)-furosta-5,20(22)-dien-3-yl O-6-deoxy-α-L-mannopyranosyl (1→2)-046-deoxy-α-L-mannopyranosyl-(1→4)]-[3-D-Glucopyranoside] | 35 nM | 50 nM | –
C[C@@H]1CC[C@@]2(OC1)O[C@H]1C[C@H]3[C@@H]4CC=C5C[C@@H](O[C@@H]6O[C@H](CO)[C@@H](O)[C@H](O[C@@H]7O[C@H](CO)[C@@H](O)[C@H](O)[C@H]7O)[C@H]6O[C@@H]6O[C@@H](C)[C@H](O)[C@@H](O)[C@H]6O)CC[C@]5(C)[C@H]4CC[C@]3(C)[C@H]1[C@@H]2C [Gracillin, (3β,25R)-spirost-5-en-3-yl O-6-deoxy-α-L-mannopyranosyl-(1→2)-O-[β-D-glucopyranosyl-(1→3)]-β-D-glucopyranoside] | 4.5 nM | 2.5 nM | –
C[C@@H]1CC[C@@]2(OC1)O[C@H]1C[C@H]3[C@@H]4CC=C5C[C@@H](O[C@@H]6O[C@H](CO)[C@@H](O[C@@H]7O[C@@H](C)[C@H](O)[C@@H](O)[C@H]7O)[C@H](O)[C@H]6O[C@@H]6O[C@@H](C)[C@H](O)[C@@H](O)[C@H]6O)CC[C@]5(C)[C@H]4CC[C@]3(C)[C@H]1[C@@H]2C [Dioscin, (3(3,25R)-spirost-5-en-3-yl O-6-deoxy-α-L-mannopyranosyl-(1→2)-046-deoxy-α-L-mannopyranosyl-(1→4)]-β-D-glucopyranoside] | – | – | IC50 (core 2 GlcNAc-T [1]): 40 nM; IC50 (Core 2 GlcNAc-T [2]): 75 nM
CC(CCC1(O)OC2CC3C4CC=C5CC(OC6OC(CO)C(OC7OC(CO)C(O)C(O)C7O)C(O)C6OC6OC(C)C(O)C(O)C6O)CCC5(C)C4CCC3(C)C2C1C)COC1OC(CO)C(O)C(O)C1O [Glycoside F, (3β,25R)-26-(β-D-glucopyranosyloxy)-22-hydroxyfurost-5-en-3-yl O-6-deoxy-α-L-mannopyranosyl-(1→2)-O-[β-D-glucopyranosyl-(1→4)]-β-D-glucopyranoside] | – | – | inhibition at 0.022 µM (core 2 GlcNAc-T [3]; at 22 nM in BB rat heart lysate): 100%
C[C@H](CC[C@@]1(O)O[C@H]2C[C@H]3[C@@H]4CC=C5C[C@@H](O[C@@H]6O[C@H](CO)[C@@H](O[C@@H]7O[C@@H](C)[C@H](O)[C@@H](O)[C@H]7O)[C@H](O)[C@H]6O[C@@H]6O[C@@H](C)[C@H](O)[C@@H](O)[C@H]6O)CC[C@]5(C)[C@H]4CC[C@]3(C)[C@H]2[C@@H]1C)CO[C@@H]1O[C@H](CO)[C@@H](O)[C@H](O)[C@H]1O [Protodioscin] | – | – | IC50 (core 2 GlcNAc-T [3]; heart lysates of BB rats, read-out: Approximate Ic50 values, Cell free assay): 20 nM; IC50 (core 2 GlcNAc-T [3]; system not restated, values as in Table 9 cell free assay, read-out: IC50): ~20 nM; inhibition of Core 2 GlcNAc-T compared to controls (Core 2 GlcNAc-T [2]; 20 ng/ml, TNF-α treated Human leukocytes (U937 cells)): approximately 98.5%; activity (Core 2 GlcNAc-T [4]; sample prepared from Tribulus terrestris, 97% pure, concentrations of 50 μM): no activity
C[C@@H](CC[C@@]1(O)O[C@H]2C[C@H]3[C@@H]4CC=C5C[C@@H](O[C@@H]6O[C@H](CO)[C@@H](O[C@@H]7O[C@@H](C)[C@H](O)[C@@H](O)[C@H]7O)[C@H](O)[C@H]6O[C@@H]6O[C@@H](C)[C@H](O)[C@@H](O)[C@H]6O)CC[C@]5(C)[C@H]4CC[C@]3(C)[C@H]2[C@@H]1C)CO[C@@H]1O[C@H](CO)[C@@H](O)[C@H](O)[C@H]1O [Trigonelloside C] | – | – | inhibition of Core 2 GlcNAc-T (Core 2 GlcNAc-T [4]; at 2.5 nM, preparation 98.2% pure): 69%

The next lines start with results.

IC50 (core 2 GlcNAc-T [1]; [5]) | IC50 (Core 2 GlcNAc-T [2]; [6]) | SMILES | also measured
3 nM | 0.25 nM | C[C@H](CC[C@@]1(O)O[C@H]2C[C@H]3[C@@H]4CC=C5C[C@@H](O[C@@H]6O[C@H](CO)[C@@H](O)[C@H](O[C@@H]7O[C@H](CO)[C@@H](O)[C@H](O)[C@H]7O)[C@H]6O[C@@H]6O[C@@H](C)[C@H](O)[C@@H](O)[C@H]6O)CC[C@]5(C)[C@H]4CC[C@]3(C)[C@H]2[C@@H]1C)CO[C@@H]1O[C@H](CO)[C@@H](O)[C@H](O)[C@H]1O [Protogracillin] | –
0.9 nM | 75 nM | C[C@@H](CCC1(O)O[C@H]2C[C@H]3[C@@H]4CC=C5C[C@@H](O[C@@H]6O[C@H](CO)[C@@H](O[C@@H]7O[C@H](CO)[C@@H](O)[C@H](O)[C@H]7O)[C@H](O)[C@H]6O[C@@H]6O[C@@H](C)[C@H](O)[C@@H](O)[C@H]6O)CC[C@]5(C)[C@H]4CC[C@]3(C)[C@H]2[C@@H]1C)CO[C@@H]1O[C@H](CO)[C@@H](O)[C@H](O)[C@H]1O (stereo partly drawn) [Trigoneoside IVa, (3β,25 S)-26-(β-D-glucopyranosyloxy)-22-hydroxyfurost-5-en-3-yl O-6-deoxy-α-L-mannopyranosyl-(1→2)-O-[β-D-glucopyranosyl-(1→4)]-β-D-glucopyranoside] | IC50 (core 2 GlcNAc-T [1]; in cell free systems, read-out: approximate IC50): 0.25 to 0.9 nM
